Measured values: ChEMBL document CHEMBL1201862, “PubChem BioAssay data set” (2004)
The source made the active and inactive calls.

Key:
Bcl-2-related protein A1 [1] = target: T1, Bcl-2-related protein A1 (Mus musculus, UniProt Q07440); experiment: Bfl-1 inhibitors blocking BH3 peptide binding, confirmation, biochemical, TR-FRET, mouse Bfl-1 (AID 621);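 also: TR-FRET binding of GST-Bfl-1 to FITC-labelled Bid peptide via terbium antibody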
T1 sequence (Q07440 whole entry): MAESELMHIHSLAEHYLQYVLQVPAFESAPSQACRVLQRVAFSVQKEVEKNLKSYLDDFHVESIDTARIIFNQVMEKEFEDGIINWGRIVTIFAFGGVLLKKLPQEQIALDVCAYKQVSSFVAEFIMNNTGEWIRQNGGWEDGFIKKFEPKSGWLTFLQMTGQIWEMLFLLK

Bcl-2-related protein A1 [2] = target: T1, Bcl-2-related protein A1; experiment: Bfl-1 binding inhibitors, SAR follow-up, biochemical, fluorescence polarization (AID 1070)
HeLa = experiment: HeLa cell cytotoxicity, dose response, cytotoxicity control for MITF activator project, CellTiter-Glo luminescence, cherry-pick samples (AID 540259); format: functional, cell-based; details: Homo sapiens
[3] = inhibitors of intracellular T. cruzi replication, confirmation, NIH3T3 host cells, beta-gal luminescence (AID 2044); format: functional, cell-based;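 also: intracellular parasites grown in NIH/3T3 mouse fibroblasts as host cells; luminescent beta-galactosidase reporter signal from transgenic T. cruzi replicating inside host cells; inhibitors lower the luminescence signal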
[4] = cytotoxicity toward NIH3T3 fibroblasts, dose response, counter-screen, cell-based, ATP luminescence, mouse fibroblasts (AID 2010); format: functional;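 also: cells exposed to compound for about 90 hours before reading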
[5] = target: T2, Oxysterols receptor LXR-beta (Homo sapiens, UniProt P55055); experiment: LXR agonists, Gal4 luciferase reporter, dose response, counter-screen for ssDAF-12 agonist project, cell-based, luminescence, HEK293, S. stercoralis campaign (AID 720737); format: functional; details: read-out: IC50 (the source's name)
T2 sequence (P55055 whole entry): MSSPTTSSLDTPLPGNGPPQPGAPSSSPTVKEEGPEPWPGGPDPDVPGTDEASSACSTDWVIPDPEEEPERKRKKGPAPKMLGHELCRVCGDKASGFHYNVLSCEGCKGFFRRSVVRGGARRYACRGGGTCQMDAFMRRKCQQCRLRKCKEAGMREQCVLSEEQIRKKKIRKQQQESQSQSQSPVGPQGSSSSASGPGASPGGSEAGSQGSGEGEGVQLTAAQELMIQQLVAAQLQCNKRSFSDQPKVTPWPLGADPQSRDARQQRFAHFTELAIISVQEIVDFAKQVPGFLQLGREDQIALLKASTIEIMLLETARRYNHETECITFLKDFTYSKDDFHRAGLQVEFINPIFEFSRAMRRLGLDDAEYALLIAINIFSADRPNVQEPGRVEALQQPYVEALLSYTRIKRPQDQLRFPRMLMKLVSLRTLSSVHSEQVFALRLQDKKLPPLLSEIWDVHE

[6] = Luminescence-based cell-based high throughput dose response assay to identify activators of the DAF-12 from the parasite S. stercoralis (ssDAF-12).; format: functional
[7] = Luminescence Cell-Based Dose Response to Identify Activators of 5'UTR Stem-Loop Driven Prion Protein mRNA Translation in H4-C Neuroglioblastoma Cells. [Related pubchem assays: 1829 (Project Summary), 1814 (Primary HTS)]; format: functional
[8] = Luminescence Cell-Based Dose Response to Identify Activators of Luciferase Translation or Activity in H4-C Neuroglioblastoma Cells. [Related pubchem assays: 1829 (Project Summary), 1814 (Primary HTS)]; format: functional
[9] = Luminescence Cell-Based Dose Confirmation to Identify Activators of 5'UTR Stem-Loop Driven Alpha-Synuclein mRNA Translation in H4 Neuroglioblastoma Cells. [Related pubchem assays: 1829 (Project Summary), 1814 (Primary HTS)]; format: functional
[10] = Luminescence Cell-Based Dose Response HTS to Identify Activators of Luciferase Translation or Activity in H4 […] Cells. [Related pubchem assays: 1829 (Project Summary), 1814 (Primary HTS)]; format: functional
[11] = P. falciparum ATP4 D1247Y mutant growth inhibitors, dose response, NITD609-resistant line, SYBR Green, dry powder (AID 1159571); format: functional, cell-based;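 also: parasites synchronized at ring stage by sorbitol before testing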
[12] = P. falciparum 3D7-ScDHODH growth inhibitors, dose response, SYBR Green, dry powder samples (AID 1159570); format: functional, cell-based;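 also: parasite growth measured after 72 hours of compound exposure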
[13] = HepG2 cell cytotoxicity, dose response, cytotoxicity control, plate reader, dry powder samples (AID 1159569); format: functional, cell-based;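 also: inhibitor potency with signal falling toward the positive control level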
[14] = P. falciparum Dd2 growth inhibitors, dose response, SYBR Green, dry powder samples (AID 1159566); format: functional, cell-based;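 also: potency for growth inhibition with lower SYBR green DNA signal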
[15] = P. falciparum Dd2 growth inhibitors, dose response, SYBR Green, cherry-picked samples (AID 1159567); format: functional, cell-based
[16] = inhibitors of clade B AD8 Env fusion, dose response, cell-based, cherry-pick (AID 652062); format: functional;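 also: luciferase signal from cell-cell fusion driven by HIV-1 clade B AD8 Env; potency is for inhibitors of fusion seen as a drop in luminescence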
[17] = P. falciparum Dd2 growth inhibitors, dose response, SYBR Green, dry powder samples, set 9 (AID 1159568); format: functional, cell-based
[18] = target: Eukaryotic translation initiation factor 4E (Mus musculus, UniProt P63073); experiment: eIF4E–eIF4G protein interaction inhibitors, dose response, biochemical, TR-FRET (AID 855); format: functional;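 also: potency for disrupting eIF4E binding to eIF4GI seen as loss of FRET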
Chain of Eukaryotic translation initiation factor 4E (P63073 whole entry): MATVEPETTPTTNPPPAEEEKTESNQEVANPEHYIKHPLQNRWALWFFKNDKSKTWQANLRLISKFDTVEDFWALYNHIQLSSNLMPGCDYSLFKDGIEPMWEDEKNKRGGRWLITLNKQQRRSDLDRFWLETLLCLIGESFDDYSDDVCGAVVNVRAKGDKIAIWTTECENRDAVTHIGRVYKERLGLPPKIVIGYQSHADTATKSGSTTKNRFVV

Protein Tat = Protein Tat (Human immunodeficiency virus type 1 group M subtype B (isolate HXB2)(HIV-1), UniProt P04608); format: functional;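 also: tat binding to TAR RNA read out by fluorescence polarization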
Chain of Protein Tat (P04608 whole entry): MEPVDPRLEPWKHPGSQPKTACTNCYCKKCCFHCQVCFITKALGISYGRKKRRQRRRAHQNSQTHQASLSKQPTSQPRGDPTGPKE

[19] = target: Induced myeloid leukemia cell differentiation protein Mcl-1 (Homo sapiens, UniProt Q07820); format: functional
Chain of Induced myeloid leukemia cell differentiation protein Mcl-1 (Q07820 whole entry): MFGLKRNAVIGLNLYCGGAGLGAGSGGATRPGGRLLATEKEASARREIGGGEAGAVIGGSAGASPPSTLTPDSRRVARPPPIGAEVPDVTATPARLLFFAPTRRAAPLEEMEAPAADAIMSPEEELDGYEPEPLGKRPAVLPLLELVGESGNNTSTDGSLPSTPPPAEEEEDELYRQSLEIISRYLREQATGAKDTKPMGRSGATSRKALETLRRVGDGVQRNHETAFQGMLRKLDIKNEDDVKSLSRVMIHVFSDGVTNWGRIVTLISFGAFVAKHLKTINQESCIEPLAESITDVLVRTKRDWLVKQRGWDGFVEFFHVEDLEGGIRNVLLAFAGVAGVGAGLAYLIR

[20] = target: T3, Dual specificity protein phosphatase 6 (Rattus norvegicus, UniProt Q64346); experiment: MKP-3 phosphatase inhibitors, primary screen, biochemical, rat enzyme, in vitro (AID 425)
T3 sequence (Q64346 whole entry): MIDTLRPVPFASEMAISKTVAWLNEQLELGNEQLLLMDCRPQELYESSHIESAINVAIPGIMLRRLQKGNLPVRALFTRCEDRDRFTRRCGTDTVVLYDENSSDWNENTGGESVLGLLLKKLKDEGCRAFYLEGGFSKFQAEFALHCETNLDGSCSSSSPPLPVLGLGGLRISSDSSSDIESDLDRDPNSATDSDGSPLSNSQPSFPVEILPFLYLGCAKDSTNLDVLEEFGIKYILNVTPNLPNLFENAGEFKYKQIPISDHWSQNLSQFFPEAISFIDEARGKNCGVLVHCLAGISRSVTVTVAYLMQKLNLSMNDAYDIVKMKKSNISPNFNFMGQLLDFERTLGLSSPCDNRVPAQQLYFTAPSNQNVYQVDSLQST

c1ccc(-n2nnc(-c3cccnc3)n2)cc1
IC50 (Bcl-2-related protein A1 [1]): > 100000 nM (not active) | IC50 (Bcl-2-related protein A1 [2]): > 100000 nM (not active) | AC50 (HeLa): 213000 nM (active)

O=C(C1CCCN(Cc2ccc(Cl)cc2)C1)N1CCCCC1 (stereo not given)
EC50 (cells): 55 nM (active) | EC50 [3]: < 100 nM (active) | EC50 [4]: > 30000 nM (not active)

Cn1/c(=N\C(=O)c2ccco2)sc2ccccc21
EC50 [5]: > 67500 nM (inactive) | IC50 [6]: > 67500 nM (inactive)

Cc1nn(CC(=O)OC(C)C(=O)Nc2ccccc2[N+](=O)[O-])c(C)c1[N+](=O)[O-] (stereo not given)
EC50 [5]: > 67500 nM (inactive) | IC50 [6]: > 67500 nM (inactive)

CCOC(=O)c1c(C)[nH]c(N=Nc2ccc(C)cc2)c1C
EC50 [7]: 305 nM (active) | EC50 [8]: 300 nM (active) | EC50 [9]: 387 nM (active) | EC50 [10]: < 100 nM (active)

CCCNC(=O)N1[C@H](C#N)[C@H](c2ccc(-c3cccc(OC)c3)cc2)[C@@H]1CO
AC50 [11]: 278 nM (active) | AC50 [12]: 1400 nM (active) | AC50 [13]: 90700 nM (active) | AC50 [14]: 168 nM (active) | AC50 [15]: 560 nM (active) | AC50 [16]: 25500 nM (active) | AC50 [17]: 171 nM (active)

CCOC(=O)C1CCN(C(=O)Nc2ccc3nc(-c4ccco4)c(-c4ccco4)nc3c2)CC1
IC50 [18]: 21200 nM (inactive) | IC50 (Protein Tat): 2010 nM (inconclusive) | IC50 [19]: 1460 nM (active) | IC50 [20]: > 10000 nM (not active)
